# Reference: patent US20060128723A1, “Sulptionamide compounds that modulate chemokine receptor activity (CCR4)” (priority 2003, published 2006)
# Counter-ions that a name gives are not always drawn.
row,SMILES,melting point
1,"COc1nc(Br)cnc1NS(=O)(=O)c1scc(Cl)c1Cl (as salt: ammonium) [Example 5, N-(5-Bromo-3-methoxypyrazin-2-yl)-3,4-dichlorothiophene-2-sulphonamide, ammonium salt]",204 °C (dec.)
2,"COc1nc(Br)cnc1NS(=O)(=O)c1sc(Cl)c(Cl)c1Cl (as salt: ammonium) [Example 6, N-(5-Bromo-3-methoxypyrazin-2-yl)-3,4,5-trichlorothiophene-2-sulphonamide, ammonium salt]",211 °C (dec.)
3,"COc1nccnc1NS(=O)(=O)c1sc(Cl)c(Cl)c1Cl [Example 1, 3,4,5-Trichloro-N-(3-methoxypyrazin-2-yl)thiophene-2-sulphonamide]",212 to 214 °C
4,"COc1nccnc1NS(=O)(=O)c1scc(Cl)c1Cl [Example 2, 3,4-Dichloro-N-(3-methoxypyrazin-2-yl)thiophene-2-sulphonamide]",151.5 to 152.5 °C
5,"COc1nc(C)cnc1NS(=O)(=O)c1sc(Cl)c(Cl)c1Cl [Example 3, 3,4,5-Trichloro-N-(3-methoxy-5-methylpyrazin-2-yl)thiophene-2-sulphonamide]",146 to 147 °C
6,"COc1nc(C)cnc1NS(=O)(=O)c1scc(Cl)c1Cl [Example 4, 3,4-Dichloro-N-(3-methoxy-5-methylpyrazin-2-yl)thiophene-2-sulphonamide]",117 to 118 °C
7,"COc1nc(Cl)cnc1NS(=O)(=O)c1sc(Cl)c(Cl)c1Cl [Example 7, 3,4,5-Trichloro-N-(5-chloro-3-methoxypyrazin-2-yl)thiophene-2-sulphonamide.]",178 to 179 °C
8,"COc1nc(Cl)cnc1NS(=O)(=O)c1scc(Cl)c1Cl [Example 8, 3,4-Dichloro-N-(5-chloro-3-methoxypyrazin-2-yl)thiophene-2-sulphonamide.]",116 to 117 °C
